Molecular target: T1, Gal4 PPARα (Homo sapiens, UniProt Q07869)
T1 construct: expressed in transfected cells; host or cells: CV1 (African green monkey kidney)
T1 sequence (Q07869 239-466 limits assumed): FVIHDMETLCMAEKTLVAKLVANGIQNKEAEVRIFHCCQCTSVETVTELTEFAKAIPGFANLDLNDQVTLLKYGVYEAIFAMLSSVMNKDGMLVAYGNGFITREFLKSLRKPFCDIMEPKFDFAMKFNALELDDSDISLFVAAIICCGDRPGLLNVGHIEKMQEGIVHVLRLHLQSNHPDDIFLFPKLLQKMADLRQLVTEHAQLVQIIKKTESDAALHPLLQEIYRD
Assay: Gal4 PPARα reporter functional assay in CV1 cells
Assay type: cell-based
Settings: examined up to 10 μM; luciferase reporter; 24 hours
Source text: Gal4 PPARα, Gal4 PPARδ, and PPARγ reporter functional assays are also used to monitor the selectivity of the exemplified compound. CV1 cells, which are derived from the renal tissue of an African green monkey, are transfected with various receptor and reporter plasmids using Fugene. For the Gal4 PPARα and PPARδ assays, a reporter plasmid containing five tandem copies of the yeast transcription protein Gal4 response element, cloned upstream of a firefly luciferase gene driven by the major late promoter of adenovirus, is transfected together with a Simian Virus 40 (SV40) driven plasmid constitutively expressing a hybrid protein containing the Gal4 DNA binding domain (DBD), and either the PPARα or PPARδ ligand binding. For the PPARγ assay, plasmids encoding PPARγ and RXRα, both driven by a cytomegalovirus (CMV) promoter are transfected together with a plasmid containing luciferase reporter cDNA driven by the TK promoter and a receptor response element (2×PPRE). Cells are transfected in T225 cm^2 cell culture flasks in DMEM media with 5% charcoal-stripped FBS. […] After 24 hours incubation with the compound, cells are lysed and luciferase activity is determined as a measure of receptor activation by luminescence. […] The maximum percent stimulation is determined versus maximum stimulation obtained with 10 μM of an appropriate PPAR agonist reference compound. […]

- functional activation of PPARα: No functional activation
Structure (SMILES): CC#C[C@@H](CC(=O)O)c1ccc(OCc2ccc(CN3CCCc4cccc(OC)c43)s2)cc1 [Example 1, (3S)-3-[4-[[5-[(8-Methoxy-3,4-dihydro-2H-quinolin-1-yl)methyl]-2-thienyl]methoxy]phenyl]hex-4-ynoic acid]

— patent US8431706B2, “1,2,3,4-tetrahydroqinoline derivative useful for the treatment of diabetes” (Eli Lilly and Company, priority 2011, dated 2013)
